Starred links: 1 amine or outer side, 2 acyl side, 3 side chain; linkers in the order of their positions; H or OH if unused. Positions of bridges follow the written chain, without caps; N, C: chain ends. Non-standard residues stand in square brackets, D forms with d. Residues, ends and D or L forms follow the SMILES beside them. Trimesoyl = O=C(c1cc(C(=O)[*:2])cc(C(=O)[*:3])c1)[*:1]; dPhe(4-CN) = N#Cc1ccc(C[C@@H](N)C(=O)O)cc1; Phe(4-F) = N[C@@H](Cc1ccc(F)cc1)C(=O)O; 2Nal = N[C@@H](Cc1ccc2ccccc2c1)C(=O)O; Pip = O=C(O)[C@@H]1CCCCN1; Dap = NC[C@H](N)C(=O)O; Sar = CNCC(=O)O
target: T1, Pin1 (Homo sapiens, UniProt Q13526, S16A/Y23A); assay: Pin1 binding by FA (FITC-labeled peptides); conditions: FITC-labeled peptide, FA; read-out: KD
T1 construct: The full-length human S16A/Y23A mutant Pin1 was expressed and purified from E. coli; made in house

Compound | Kd [nM]
bicyclo[Tm-(D-4-Phe-Fpa-D-homoGlu-Pip-Nal-Arg-Ala-D-Phe)-Dap-(Phe-Nal-Arg-Arg-Arg-Arg-Dap)]-Lys [Peptide 41] | 870 ± 80
C[C@@H]1NC(=O)[C@H](CCCNC(=N)N)NC(=O)[C@H](Cc2ccc3ccccc3c2)NC(=O)[C@@H]2CCCCN2C(=O)[C@@H](CC(=O)O)NC(=O)CN(C)C(=O)[C@@H]2CCCN2C(=O)c2cc3cc(c2)C(=O)NC[C@H](NC(=O)[C@@H](C)NC(=O)[C@@H](C)NC1=O)C(=O)N[C@@H](Cc1ccccc1)C(=O)N[C@@H](Cc1ccc2ccccc2c1)C(=O)N[C@@H](CCCNC(=N)N)C(=O)N[C@@H](CCCNC(=N)N)C(=O)N[C@@H](CCCNC(=N)N)C(=O)N[C@@H](CCCNC(=N)N)C(=O)N[C@H](C(=O)N[C@@H](CCCCN)C(N)=O)CNC3=O [Peptide 16, bicyclo[Tm-(Pro-Sar-D-Asp-Pip-Nal-Arg-Ala-D-Ala-D-Ala)-Dap-(Phe-Nal-Arg-Arg-Arg-Arg-Dap)]-Lys] (P[Sar][dD][Pip][2Nal]RA[dA][dA][Dap]F[2Nal]RRRR[Dap]K-NH2; linker N-10-17 via Trimesoyl; C-terminus assumed) | 2490 ± 570
C[C@@H]1NC(=O)[C@H](CCCNC(=N)N)NC(=O)[C@H](Cc2ccc3ccccc3c2)NC(=O)[C@@H]2CCCCN2C(=O)[C@@H]([C@H](C)O)NC(=O)[C@H](Cc2ccc(F)cc2)NC(=O)[C@@H](Cc2ccccc2)NC(=O)c2cc3cc(c2)C(=O)NC[C@H](NC(=O)[C@@H](Cc2ccccc2)NC1=O)C(=O)N[C@@H](CCCNC(=N)N)C(=O)N[C@@H](CCCNC(=N)N)C(=O)N[C@@H](CCCNC(=N)N)C(=O)N[C@@H](CCCNC(=N)N)C(=O)N[C@@H](Cc1ccc2ccccc2c1)C(=O)N[C@@H](Cc1ccccc1)C(=O)N[C@H](C(=O)N[C@@H](CCCCN)C(N)=O)CNC3=O [Peptide 42, bicyclo[Tm-(D-Phe-Fpa-D-Thr-Pip-Nal-Arg-Ala-D-Phe)-Dap-(Arg-Arg-Arg-Arg-Nal-Phe-Dap)]-Lys] ([dF][Phe(4-F)][dT][Pip][2Nal]RA[dF][Dap]RRRR[2Nal]F[Dap]K-NH2; linker N-9-16 via Trimesoyl; C-terminus assumed) | 980 ± 180
CN1CC(=O)N[C@H](CC(=O)O)C(=O)N2CCCC[C@H]2C(=O)N[C@@H](Cc2ccc3ccccc3c2)C(=O)N[C@@H](CCCNC(=N)N)C(=O)N[C@@H](CCCNC(=N)N)C(=O)N[C@H](CCCNC(=N)N)C(=O)N[C@H]2CNC(=O)c3cc(cc(c3)C(=O)N3CCC[C@H]3C1=O)C(=O)NC[C@@H](C(=O)N[C@@H](CCCCN)C(N)=O)NC(=O)[C@H](CCCNC(=N)N)NC(=O)[C@H](CCCNC(=N)N)NC(=O)[C@H](CCCNC(=N)N)NC(=O)[C@H](CCCNC(=N)N)NC(=O)[C@H](Cc1ccc3ccccc3c1)NC(=O)[C@H](Cc1ccccc1)NC2=O [Peptide 24, bicyclo[Tm-(Pro-Sar-D-Asp-Pip-Nal-Arg-Arg-D-Arg)-Dap-(Phe-Nal-Arg-Arg-Arg-Arg-Dap)]-Lys] (P[Sar][dD][Pip][2Nal]RR[dR][Dap]F[2Nal]RRRR[Dap]K-NH2; linker N-9-16 via Trimesoyl; C-terminus assumed) | 1310 ± 100

These reach a lower Kd. Values come first.

Kd [nM] | Compound
720 ± 90 | C[C@H]1NC(=O)[C@H](CCCNC(=N)N)NC(=O)[C@H](CCCNC(=N)N)NC(=O)[C@H](Cc2ccc3ccccc3c2)NC(=O)[C@@H]2CCCCN2C(=O)[C@@H](CC(=O)O)NC(=O)CN(C)C(=O)[C@@H]2CCCN2C(=O)c2cc3cc(c2)C(=O)NC[C@H](NC1=O)C(=O)N[C@@H](Cc1ccccc1)C(=O)N[C@@H](Cc1ccc2ccccc2c1)C(=O)N[C@@H](CCCNC(=N)N)C(=O)N[C@@H](CCCNC(=N)N)C(=O)N[C@@H](CCCNC(=N)N)C(=O)N[C@@H](CCCNC(=N)N)C(=O)N[C@H](C(=O)N[C@@H](CCCCN)C(N)=O)CNC3=O [Peptide 19, bicyclo[Tm-(Pro-Sar-D-Asp-Pip-Nal-Arg-Arg-D-Ala)-Dap-(Phe-Nal-Arg-Arg-Arg-Arg-Dap)]-Lys] (P[Sar][dD][Pip][2Nal]RR[dA][Dap]F[2Nal]RRRR[Dap]K-NH2; linker N-9-16 via Trimesoyl; C-terminus assumed)
710 ± 120 | bicyclo[Tm-(D-4-Phe-Fpa-D-Nle-Pip-Nal-Arg-Ala-D-Phe)-Dap-(Phe-Nal-Arg-Arg-Arg-Arg-Dap)]-Lys [Peptide 40]
480 | CN1CC(=O)N[C@H](CC(=O)O)C(=O)N2CCCC[C@H]2C(=O)N[C@@H](Cc2ccc3ccccc3c2)C(=O)N[C@@H](CCCNC(=N)N)C(=O)N[C@@H](CCCNC(=N)N)C(=O)N[C@H](Cc2ccccc2)C(=O)N[C@H]2CNC(=O)c3cc(cc(c3)C(=O)N3CCC[C@H]3C1=O)C(=O)NC[C@@H](C(=O)N[C@@H](CCCCN)C(N)=O)NC(=O)[C@H](CCCNC(=N)N)NC(=O)[C@H](CCCNC(=N)N)NC(=O)[C@H](CCCNC(=N)N)NC(=O)[C@H](CCCNC(=N)N)NC(=O)[C@H](Cc1ccc3ccccc3c1)NC(=O)[C@H](Cc1ccccc1)NC2=O [Peptide 22, bicyclo[Tm-(Pro-Sar-D-Asp-Pip-Nal-Arg-Arg-D-Phe)-Dap-(Phe-Nal-Arg-Arg-Arg-Arg-Dap)]-Lys] (P[Sar][dD][Pip][2Nal]RR[dF][Dap]F[2Nal]RRRR[Dap]K-NH2; linker N-9-16 via Trimesoyl; C-terminus assumed)
450 ± 50 | C[C@@H]1NC(=O)[C@H](CCCNC(=N)N)NC(=O)[C@H](Cc2ccc3ccccc3c2)NC(=O)[C@@H]2CCCCN2C(=O)[C@@H]([C@H](C)O)NC(=O)[C@H](Cc2ccc(F)cc2)NC(=O)[C@@H](Cc2ccccc2)NC(=O)c2cc3cc(c2)C(=O)NC[C@H](NC(=O)[C@@H](Cc2ccccc2)NC1=O)C(=O)N[C@@H](CCCNC(=N)N)C(=O)N[C@@H](Cc1ccc2ccccc2c1)C(=O)N[C@@H](CCCNC(=N)N)C(=O)N[C@@H](Cc1ccccc1)C(=O)N[C@@H](CCCNC(=N)N)C(=O)N[C@@H](CCCNC(=N)N)C(=O)N[C@H](C(=O)N[C@@H](CCCCN)C(N)=O)CNC3=O [Peptide 44, bicyclo[Tm-(D-Phe-Fpa-D-Thr-Pip-Nal-Arg-Ala-D-Phe)-Dap-(Arg-Nal-Arg-Phe-Arg-Arg-Dap)]-Lys] ([dF][Phe(4-F)][dT][Pip][2Nal]RA[dF][Dap]R[2Nal]RFRR[Dap]K-NH2; linker N-9-16 via Trimesoyl; C-terminus assumed)
350 ± 40 | C[C@@H]1NC(=O)[C@H](CCCNC(=N)N)NC(=O)[C@H](Cc2ccc3ccccc3c2)NC(=O)[C@@H]2CCCCN2C(=O)[C@@H]([C@H](C)O)NC(=O)[C@H](Cc2ccc(F)cc2)NC(=O)[C@@H](Cc2ccc(C#N)cc2)NC(=O)c2cc3cc(c2)C(=O)NC[C@H](NC(=O)[C@@H](Cc2ccccc2)NC1=O)C(=O)N[C@@H](Cc1ccccc1)C(=O)N[C@@H](Cc1ccc2ccccc2c1)C(=O)N[C@@H](CCCNC(=N)N)C(=O)N[C@@H](CCCNC(=N)N)C(=O)N[C@@H](CCCNC(=N)N)C(=O)N[C@@H](CCCNC(=N)N)C(=O)N[C@H](C(=O)N[C@@H](CCCCN)C(N)=O)CNC3=O [Peptide 38, bicyclo[Tm-(D-4-CyanoPhe-Fpa-D-Thr-Pip-Nal-Arg-Ala-D-Phe)-Dap-(Phe-Nal-Arg-Arg-Arg-Arg-Dap)]-Lys] ([dPhe(4-CN)][Phe(4-F)][dT][Pip][2Nal]RA[dF][Dap]F[2Nal]RRRR[Dap]K-NH2; linker N-9-16 via Trimesoyl; C-terminus assumed)

same assay, conditions: peptide 22 vs 3; peptide 27 vs 4

Improvement of Pin1 binding by D-Phe for D-Ala vs parent peptide [fold] | Compound
~2 | CN1CC(=O)N[C@H](CC(=O)O)C(=O)N2CCCC[C@H]2C(=O)N[C@@H](Cc2ccc3ccccc3c2)C(=O)N[C@@H](CCCNC(=N)N)C(=O)N[C@@H](CCCNC(=N)N)C(=O)N[C@H](Cc2ccccc2)C(=O)N[C@H]2CNC(=O)c3cc(cc(c3)C(=O)N3CCC[C@H]3C1=O)C(=O)NC[C@@H](C(=O)N[C@@H](CCCCN)C(N)=O)NC(=O)[C@H](CCCNC(=N)N)NC(=O)[C@H](CCCNC(=N)N)NC(=O)[C@H](CCCNC(=N)N)NC(=O)[C@H](CCCNC(=N)N)NC(=O)[C@H](Cc1ccc3ccccc3c1)NC(=O)[C@H](Cc1ccccc1)NC2=O [Peptide 22, bicyclo[Tm-(Pro-Sar-D-Asp-Pip-Nal-Arg-Arg-D-Phe)-Dap-(Phe-Nal-Arg-Arg-Arg-Arg-Dap)]-Lys] (P[Sar][dD][Pip][2Nal]RR[dF][Dap]F[2Nal]RRRR[Dap]K-NH2; linker N-9-16 via Trimesoyl; C-terminus assumed)

Source: patent publication US10815276B2, “Cell penetrating peptides and methods of making and using thereof” (Entrada Therapeutics, Inc., priority 2014, dated 2020)
